Source: US20070065803A1, “Patterns for a skeletal system” (CENTRE NATIONAL DE LA RECHERCHE SCIENTIFIQUE, priority 2003, published 2007)

System: osteoclasts derived from RAW-GFP deposited onto a layer of MC3T3-type osteoblast cells
Experiment: Crossing of the osteoblast layer by osteoclasts in the bone system model (confocal microscopy)
Assay type: cell-based, murine
Conditions: PP2 at 10 μM; untreated osteoclasts cross the layer after 1 hour to 1 hour 30 min; FIG. 4
Procedure: FIG. 4, images obtained by confocal microscopy 3D analysis, showing the organization of the two cell types according to the section along Z, in order to determine the effects of PP2 (FIG. 4B) in comparison with the control trial (FIG. 4A).
Cells of the murine osteoblast line MC 3T3 are placed in culture in α-MEM medium supplemented with 10% by volume of fetal calf serum, 10^−8M dexamethasone and 0.028 mM ascorbic acid. The cells are then detached and seeded at confluence onto the mineralized support.
The osteoclasts derived from human or murine primary cultures or from lines (for example, the RAW line or the human line GCT23) are obtained after 7 days of differentiation as described in Destaing et al. (Mol Biol Cell, Podosomes display actin turnover and dynamic self-organization in osteoclasts expressing actin-green fluorescent protein, 14(2):407-16, 2003). The osteoclast precursors are cultured in the presence of α-MEM medium supplemented with 10% by volume of fetal calf serum and of two recombinant cytokines: M-CSF and RANK-L ([…]). The cells are placed at 37° C. and 5% of CO2 and the medium is changed every two days for 7-8 days. The differentiated osteoclasts are detached with a solution of EDTA at 0.25 mM diluted in 1×PBS. The osteoclasts are seeded at a density of 10 cells/mm^2.
An inhibitor of the Src tyrosine kinase, PP2, was tested in the model according to the invention. […]

## CC(C)(C)n1nc(-c2ccc(Cl)cc2)c2c(N)ncnc21 [PP2]
  crossing (invasion) of the osteoblast cell layer by the osteoclasts: the osteoclasts no longer cross the osteoblast cell layer
